Measurements from patent US4871765A, “Amine derivative and its salt and anti-ulcer agent containing the same” (Toyama Chemical Co., Ltd., priority 1987, dated 1989).

Columns and labels:
Acute toxicity = type: in vivo; conditions: mouse, in vivo; ICR mice (male, 27-30 g), intravenous, up and down method
Protocol: (§1) A test compound was administered to ICR mice (male, 27-30 g) intravenously,and the LD50 value was calculated by the up and down method.

gastric acid secretion = experiment: Inhibitory activity on gastric acid secretion (pylorus ligation method); type: in vivo, Wistar rats (male); conditions: intraduodenal, histamine 25 mg/kg s.c., 3 hours
Protocol: [I] Inhibitory activity on gastric acid secretion (pylorus ligation method)
This activity was measured in accordance with the method by H. Shay et al. described in Gastroenterology, 5, 43 (1945). Groups of six or seven Wistar rats (male, 190-230 g) were fasted for 24 hours, following which the pylorus of each rat was ligated under ether anesthesia. The test compounds were administered intraduodenally after ligation. Thereafter, the rats were subjected to celiorrhaphy and immediately 25 mg/kg of histamine was administered to them subcutaneously at the dorsal. After 3 hours, the cardia of stomach was ligated, and then the stomach was removed. The gastric juice was collected by centrifugation and the total amount was quantitated. 1 ml of the gastric juice was taken and titrated with a 0.1 N aqueous sodium hydroxide solution to an end point of pH 7.0. In administering the test compound, the compound was dissolved in dimethyl sulfoxide (DMSO) and then diluted with distilled water to obtain a 0.25% aqueous DMSO solution containing the test compound. A 0.25% aqueous DMSO solution containing no test compound was administered to control group.
The inhibition rate of gastric acid secretion was calculated from the following equation: [formula]

ICR mice = experiment: Acute toxicity; type: in vivo; conditions: ICR mice (male, 27-30 g), intravenous, up and down method
Protocol: as §1

Q: For `CN(C)Cc1ccc(CSCCNC(=NS(C)(=O)=O)NCC(O)c2ccc(O)cc2)o1` (stereo not shown) [Test compound 5, reference compound], which LD50 (Acute toxicity) is on record?
A: The LD50 was 90.7 mg/kg.

Q: With `CNCc1ccc(CSCCNC(=NS(C)(=O)=O)NCC(O)c2ccc(O)cc2)o1` (stereo not shown) [compound 1] as the compound, how does the LD50 (Acute toxicity) read?
A: Its LD50 is 100 mg/kg.

Q: And the inhibition at 0.625 mg/kg (gastric acid secretion; Rattus norvegicus, dose 0.625 mg/kg, **p < 0.01, read-out: Inhibition rate)?
A: Its inhibition at 0.625 mg/kg is 67.6%.

Q: And the inhibition at 1.25 mg/kg (gastric acid secretion; Rattus norvegicus, dose 1.25 mg/kg, **p < 0.01, *p < 0.05, read-out: Inhibition rate)?
A: The inhibition at 1.25 mg/kg was 82.2%.

Q: Which LD50 (ICR mice) does the source give for “N-[2-(4-carbamoylphenyl)-2-hydroxyethyl]-N'-methanesulfonyl-N"-[2-[[5-(methylamino)methyl-2furyl]-methylthio]ethyl]guanidine [Test compound 2]” here?
A: Its LD50 is 129.8 mg/kg.

Q: Which Inhibition rate (gastric acid secretion; dose 1.25 mg/kg, **p < 0.01, *p < 0.05, listed as 2) does the source give for “N-[2-hydroxy-2-(4-hydroxyphenyl)ethyl]-N'-methanesulfonyl-N"-[2-[[5-(methylamino)methyl-2-furyl]methylthio]ethyl]guanidine [Example 1 (1)]” here?
A: The Inhibition rate was 51.3%.

Q: What about the Inhibition rate (gastric acid secretion; dose 1.25 mg/kg, **p < 0.01, *p < 0.05, listed as 3) of the same compound?
A: Its Inhibition rate is 54.2%.

Q: And the Inhibition rate (gastric acid secretion; dose 1.25 mg/kg, **p < 0.01, *p < 0.05, listed as 4)?
A: Its Inhibition rate is 30.6%.

Q: Which LD50 (ICR mice) does the source give for “N-[2-hydroxy-2-[3-(methanesulfonylamino)phenyl]ethyl]-N'-methanesulfonyl-N"-[2-[[5-(methylamino)-methyl-2-furyl]methylthio]ethyl]guanidine [Test compound 3]” here?
A: Its LD50 is 151.0 mg/kg.

Q: Which Inhibition rate (gastric acid secretion; dose 5.0 mg/kg) does the source give for “S(-)-N-[2-hydroxy-2-(4-hydroxyphenyl)ethyl]-N'-methanesulfonyl-N"-[2-[[5-(methylamino)methyl-2-furyl]methylthio]ethyl]guanidine [Example 5]” here?
A: Its Inhibition rate is 32.7%.
